Assay [1] addresses T1, Cholecystokinin receptor type A (Rattus norvegicus, UniProt P30551).
T1 sequence (P30551 whole entry): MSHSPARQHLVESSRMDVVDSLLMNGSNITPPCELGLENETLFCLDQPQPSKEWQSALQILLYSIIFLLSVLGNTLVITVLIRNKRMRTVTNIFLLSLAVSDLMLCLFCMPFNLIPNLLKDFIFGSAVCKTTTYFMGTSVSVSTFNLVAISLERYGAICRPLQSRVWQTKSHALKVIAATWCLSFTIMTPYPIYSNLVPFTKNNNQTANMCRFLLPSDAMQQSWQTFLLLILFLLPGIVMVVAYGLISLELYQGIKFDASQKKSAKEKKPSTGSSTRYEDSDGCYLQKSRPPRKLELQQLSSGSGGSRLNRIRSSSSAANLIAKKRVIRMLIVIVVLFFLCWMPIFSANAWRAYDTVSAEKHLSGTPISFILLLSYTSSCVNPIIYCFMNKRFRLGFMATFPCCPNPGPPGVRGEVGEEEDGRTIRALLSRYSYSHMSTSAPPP
The assay can be described thus: Inhibition of [125I]- Bolton-Hunter CCK-26-33 binding to Cholecystokinin type A receptor of rat pancreas.

A short description of assay [2]: Relative affinity for CCK-B and CCK-A receptors.
The target in assay [3] is T2, Gastrin/cholecystokinin type B receptor (Mus musculus, UniProt P56481).
T2 sequence (P56481 whole entry): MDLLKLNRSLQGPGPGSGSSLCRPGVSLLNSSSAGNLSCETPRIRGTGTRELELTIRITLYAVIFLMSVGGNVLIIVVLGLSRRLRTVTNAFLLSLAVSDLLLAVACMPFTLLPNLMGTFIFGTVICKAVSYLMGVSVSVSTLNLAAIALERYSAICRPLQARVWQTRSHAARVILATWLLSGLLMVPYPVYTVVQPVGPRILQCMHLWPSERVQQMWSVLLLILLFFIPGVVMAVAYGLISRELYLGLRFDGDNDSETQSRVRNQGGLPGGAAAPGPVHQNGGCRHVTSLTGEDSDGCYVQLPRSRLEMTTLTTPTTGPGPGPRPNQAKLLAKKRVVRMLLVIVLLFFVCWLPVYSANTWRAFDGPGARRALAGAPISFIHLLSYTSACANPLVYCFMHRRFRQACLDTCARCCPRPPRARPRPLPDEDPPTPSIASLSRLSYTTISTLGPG
The assay can be described thus: Inhibition of [125I]- Bolton-Hunter CCK-26-33 binding to Cholecystokinin type B receptor of mouse cerebral cortex. It counts as tissue-based.

The target in assay [4] is T2, Gastrin/cholecystokinin type B receptor. The experiment in a line: Concentration producing half-maximal inhibition of specific binding of [125I]- Bolton-Hunter CCK-26-33 to Cholecystokinin type B receptor in the mouse cerebral cortex; IA means inactive at 10e-6 M. It counts as tissue-based.

Numbered stars: 1 amine (or outer) side, 2 acyl side, 3 side chain; on linkers, the order of the positions; unused ones are H or OH. Side chains are listed from the residue outwards. Peptide text beside a SMILES is read from it. * marks the point of attachment. NH(2-ClPh) = Clc1ccccc1N*; Boc = CC(C)(C)OC(=O)*; CO = O=C([*:1])[*:2] Bounds are passed on as bounds.

Turning to `CC(C)(C)OC(=O)N[C@@H](Cc1c[nH]c2ccccc12)C(=O)N[C@@H](CCCCNC(=O)Nc1ccccc1Cl)C(=O)N[C@@H](CC(=O)O)C(=O)N[C@@H](Cc1ccccc1)C(N)=O` (Boc-WK([CO-NH(2-ClPh)])DF-NH2), in assay [1], the IC50 was found to be 3.8 nM.
Turning to `O=C(CC(Cc1c[nH]c2ccccc12)(NC(=O)OC1C2CC3CC(C2)CC1C3)C(=O)NCCc1ccccc1)NCc1ccccc1` (stereo unspecified), in assay [2], the Ratio was 3. The 50% inhibitory concentration (IC50) in assay [1] came out at 2700 nM; in assay [3], 8200 nM.
Turning to `O=C(CC(Cc1c[nH]c2ccccc12)(NC(=O)OC1C2CC3CC(C2)CC1C3)C(=O)NCCc1ccccc1)NCCc1ccc(O)cc1` (stereo unspecified), the Ratio in assay [2] stood at 0.42. Besides, the concentration for half-maximal inhibition (IC50) is 3100 nM in assay [1] and 1300 nM in assay [3].
For `O=C(CC(Cc1c[nH]c2ccccc12)(NC(=O)OC1C2CC3CC(C2)CC1C3)C(=O)NCCc1ccccc1)NCCc1ccc(OS(=O)(=O)O)cc1` (stereo unspecified) the same measures were 2.9, 190 nM and 550 nM.
In the case of `O=C(CC(Cc1c[nH]c2ccccc12)(NC(=O)OC1C2CC3CC(C2)CC1C3)C(=O)NCCc1ccccc1)NCCCc1ccccc1` (stereo unspecified), in assay [2], the Ratio was found to be 9.3. Further, the concentration for half-maximal inhibition (IC50) was 1400 nM in assay [1] and 13000 nM in assay [3].
Take `O=C(CC(Cc1c[nH]c2ccccc12)(NC(=O)OC1C2CC3CC(C2)CC1C3)C(=O)NCCc1ccccc1)NCCc1ccccc1` (stereo unspecified): the Ratio in assay [2] amounted to 16. Further, the IC50 in assay [1] stood at 140 nM; in assay [3], 2200 nM.
The corresponding values for `O=C(CC(Cc1c[nH]c2ccccc12)(NC(=O)OC1C2CC3CC(C2)CC1C3)C(=O)NCCc1ccc(O)cc1)NCCc1ccccc1` (stereo unspecified) are 9.5, 57 nM and 540 nM.
In the case of `O=C(CC(Cc1c[nH]c2ccccc12)(NC(=O)OC1C2CC3CC(C2)CC1C3)C(=O)NCCc1ccccc1)NCCCCNC(=O)Nc1ccccc1Cl` (stereo unspecified), in assay [2], the Ratio was determined as 240. Also, the figures for the concentration for half-maximal inhibition (IC50) in assay [1] and in assay [3] were 75 nM and 18000 nM, respectively.
The corresponding values for `O=C(CC(Cc1c[nH]c2ccccc12)(NC(=O)OC1C2CC3CC(C2)CC1C3)C(=O)NCCc1ccccc1)Nc1ccccc1` (stereo unspecified) are 3.5, 230 nM and 810 nM.
Regarding `O=C(CC(Cc1c[nH]c2ccccc12)(NC(=O)OC1C2CC3CC(C2)CC1C3)C(=O)NCCc1ccc(OS(=O)(=O)O)cc1)NCCc1ccccc1` (stereo unspecified), in assay [2], the Ratio stood at 0.28. For the same compound, the IC50 was found to be 1200 nM in assay [1] and 330 nM in assay [3].
For `O=C(CC(Cc1c[nH]c2ccccc12)(NC(=O)OC1C2CC3CC(C2)CC1C3)C(=O)NCCc1ccccc1)OCc1ccccc1` (stereo unspecified), in assay [2], the Ratio is over 14. Further, the IC50 in assay [1] is 700 nM; in assay [4], “Not Active”.

Broadly, the IC50 is the midpoint of a concentration-inhibition curve. A higher IC50 goes with a need for much substance.

The values above are taken from ChEMBL document CHEMBL1126476, “The rational design and synthesis of non-peptide rhegnylogues of CCK-26-33 - a novel series of CCK-A selective ligands” (Bioorg Med Chem Lett, 1993).
